Test results as given in US12157730B2, “Heteroaryl derivative, method for producing same, and pharmaceutical composition comprising same as effective component” (VORONOI INC., priority 2019, dated 2024).

Molecular target: T1, Ba/F3 cell EGFR Exon20 ins NPH (Homo sapiens, UniProt P00533, INS773NPH)
T1 construct: expressed in transfected cells; host or cells: Ba/F3
Assay: Ba/F3 cell proliferation suppression, EGFR Exon20 ins NPH
Type: cell-based
Conditions: GI50 class; Ba/F3 cell line with NPH inserted at Exon20 of EGFR; 72 hours
In short: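 Seed 3000–5000 cells/well; after 24 h add compound (12 conc., 0.3 nM–50 um final); incubate 72 h; add CellTiter-Glo, 10 min room temperature; read luminescence; GI50 from % growth vs control, triplicate.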

Row | SMILES | Ba/F3 (NPH) Activity
1 | C=CC(=O)Nc1cc(Nc2cc(N3OCC[C@@H]3c3ccc(Cl)c(Cl)c3)ncn2)c(OC)cc1N1CCN(CCN(C)C)CC1 [compound 686, N-(5-((6-((R)-3-(3,4-dichlorophenyl)isoxazolidine-2-yl)pyrimidine-4-yl)amino)-2-(4-(2-(dimethylamino)ethyl)piperazine-1-yl)-4-methoxyphenyl) acrylamide] | B (50 nM ≤ GI50 < 500 nM)
2 | C=CC(=O)Nc1cc(Nc2cc(N3OCC[C@@H]3c3ccc(F)cc3)ncn2)c(OC)cc1N1CCC(N2CCN(C(C)=O)CC2)CC1 [compound 809, N-(2-(4-(4-acetylpiperazine-1-yl)piperidine-1-yl)-5-((6-((R)-3-(4-fluorophenyl)isoxazolidine-2-yl)pyrimidine-4-yl)amino)-4-methoxyphenyl) acrylamide] | A (GI50 < 50 nM)
3 | C=CC(=O)Nc1cc(Nc2cc(N3OCC[C@@H]3c3ccccc3)ncn2)c(OC)cc1N1CCN(CC2CC2)CC1 [Example 277, N-(2-(4-(cyclopropylmethyl)piperazine-1-yl)-4-methoxy-5-((6-((R)-3-phenylisoxazolidine-2-yl)pyrimidine-4-yl)amino)phenyl) acrylamide] | A (GI50 < 50 nM)
4 | C=CC(=O)Nc1cc(Nc2cc(N3OCC[C@@H]3c3cccc(Cl)c3C)ncn2)c(OC)cc1N1CCC(N2CCN(C3CC3)[C@H](C)C2)CC1 [Example 152, N-(5-((6-((R)-3-(3-chloro-2-methylphenyl)isoxazolidine-2-yl)pyrimidine-4-yl)amino)-2-(4-((R)-4-cyclopropyl-3-methylpiperazine-1-yl)piperidine-1-yl)-4-methoxyphenyl) acrylamide] | A (GI50 < 50 nM)
5 | C=CC(=O)Nc1cc(Nc2cc(N3OCC[C@@H]3c3ccc(Cl)cc3)ncn2)c(OC)cc1N1CCC(N2C[C@@H]3C[C@H]2CO3)CC1 [compound 866, N-(2-(4-((1S,4S)-2-oxa-5-azabicyclo [2.2.1]heptane-5-yl)piperidine-1-yl)-5-((6-((R)-3-(4-chlorophenyl)isoxazolidine-2-yl)pyrimidine-4-yl)amino)-4-methoxyphenyl) acrylamide] | A (GI50 < 50 nM)
6 | C=CC(=O)Nc1cc(Nc2cc(N3OCC[C@@H]3c3cccc(F)c3Cl)ncn2)c(OC)cc1N1CCC(N2CCN(C3CCC3)CC2)CC1 [Example 192, N-(5-((6-((R)-3-(2-chloro-3-fluorophenyl)isoxazolidine-2-yl)pyrimidine-4-yl)amino)-2-(4-(4-cyclobutylpiperazine-1-yl)piperidine-1-yl)-4-methoxyphenyl) acrylamide] | A (GI50 < 50 nM)
7 | C=CC(=O)Nc1cc(Nc2cc(N3OCC[C@@H]3c3c(F)ccc(F)c3F)ncn2)c(OC)cc1N1CCN(CC)CC1 [compound 631, N-(2-(4-ethylpiperazine-1-yl)-4-methoxy-5-((6-((R)-3-(2,3,6-trifluorophenyl)isoxazolidine-2-yl)pyrimidine-4-yl)amino)phenyl)acrylamide] | B (50 nM ≤ GI50 < 500 nM)
8 | C=CC(=O)Nc1cc(Nc2cc(N3OCC[C@@H]3Cc3cccc(F)c3Cl)ncn2)c(OC)cc1N1CCC(N2CCN(C3CC3)CC2)CC1 [compound 1007, N-(5-((6-((S)-3-(2-chloro-3-fluorobenzyl)isoxazolidine-2-yl)pyrimidine-4-yl)amino)-2-(4-(4-cyclopropylpiperazine-1-yl)piperidine-1-yl)-4-methoxyphenyl) acrylamide] | A (GI50 < 50 nM)
9 | C=CC(=O)Nc1cc(Nc2cc(N3OCC[C@@H]3c3cccc(F)c3Cl)ncn2)c(OC)cc1N1CCC(N(C)C)CC1 [compound 553, N-(5-((6-((R)-3-(2-chloro-3-fluorophenyl)isoxazolidine-2-yl)pyrimidine-4-yl)amino)-2-(4-(dimethylamino)piperidine-1-yl)-4-methoxyphenyl) acrylamide] | A (GI50 < 50 nM)
10 | C=CC(=O)Nc1cc(Nc2cc(N3OCC[C@@H]3Cc3cccc(Cl)c3Cl)ncn2)c(OC)cc1N1CCC(N2C[C@H]3C[C@@H]2CO3)CC1 [compound 1014, N-(2-(4-((1R,4R)-2-oxa-5-azabicyclo [2.2.1]heptane-5-yl)piperidine-1-yl)-5-((6-((S)-3-(2,3-dichlorobenzyl)isoxazolidine-2-yl)pyrimidine-4-yl)amino)-4-methoxyphenyl) acrylamide] | A (GI50 < 50 nM)
11 | C=CC(=O)Nc1cc(Nc2cc(N3OCC[C@@H]3c3ccc(F)cc3)ncn2)c(OC)cc1N1CCC(N2CCOCC2)CC1 [compound 786, N-(5-((6-((R)-3-(4-fluorophenyl)isoxazolidine-2-yl)pyrimidine-4-yl)amino)-4-methoxy-2-(4-morpholinopiperidine-1-yl)phenyl)acrylamide] | A (GI50 < 50 nM)
12 | C=CC(=O)Nc1cc(Nc2cc(N3OCC[C@@H]3c3cccc(F)c3F)ncn2)c(OC)cc1N1CCN(C)[C@H](C)C1 [compound 884, N-(5-((6-((R)-3-(2,3-difluorophenyl)isoxazolidine-2-yl)pyrimidine-4-yl)amino)-2-((R)-3,4-dimethylpiperazine-1-yl)-4-methoxyphenyl) acrylamide] | A (GI50 < 50 nM)
13 | C=CC(=O)Nc1cc(Nc2cc(N3OCC[C@@H]3c3cc(F)ccc3F)ncn2)c(OC)cc1N1CCC(N2CC3CCC(C2)N3C2CC2)CC1 [Example 134, N-(2-(4-(8-cyclopropyl-3,8-diazabicyclo[3.2.1]octan-3-yl)piperidine-1-yl)-5-((6-((R)-3-(2,5-difluorophenyl)isoxazolidine-2-yl)pyrimidine-4-yl)amino)-4-methoxyphenyl) acrylamide] | A (GI50 < 50 nM)
14 | C=CC(=O)Nc1cc(Nc2cc(N3OCC[C@@H]3Cc3ccccc3)ncn2)c(OC)cc1N1CCC(N2CCN(C)CC2)CC1 [compound 963, N-(5-((6-((S)-3-benzylisoxazolidine-2-yl)pyrimidine-4-yl)amino)-4-methoxy-2-(4-(4-methylpiperazine-1-yl)piperidine-1-yl)phenyl)acrylamide] | A (GI50 < 50 nM)
15 | C=CC(=O)Nc1cc(Nc2cc(N3OCC[C@@H]3Cc3ccc(C(F)(F)F)cc3)ncn2)c(OC)cc1N1CCC(N2C[C@H]3C[C@@H]2CO3)CC1 [compound 1051, N-(2-(4-((1R,4R)-2-oxa-5-azabicyclo [2.2.1]heptane-5-yl)piperidine-1-yl)-4-methoxy-5-((6-((S)-3-(4-(trifluoromethyl)benzyl)isoxazolidine-2-yl)pyrimidine-4-yl)amino)phenyl)acrylamide] | A (GI50 < 50 nM)
16 | C=CC(=O)Nc1cc(Nc2cc(N3OCC[C@@H]3c3cccc(Cl)c3Cl)ncn2)c(OC)cc1N1CCN(CCN(C)C)CC1 [compound 566, N-(5-((6-((R)-3-(2,3-dichlorophenyl)isoxazolidine-2-yl)pyrimidine-4-yl)amino)-2-(4-(2-(dimethylamino)ethyl)piperazine-1-yl)-4-methoxyphenyl) acrylamide] | B (50 nM ≤ GI50 < 500 nM)
17 | C=CC(=O)Nc1cc(Nc2cc(N3OCC[C@@H]3c3cccc(Cl)c3Cl)ncn2)c(OC)cc1N1CCN(C2CC2)[C@@H](C)C1 [compound 568, N-(2-((S)-4-cyclopropyl-3-methylpiperazine-1-yl)-5-((6-((R)-3-(2,3-dichlorophenyl)isoxazolidine-2-yl)pyrimidine-4-yl)amino)-4-methoxyphenyl) acrylamide] | A (GI50 < 50 nM)
18 | C=CCN1CCN(C2CCN(c3cc(OC)c(Nc4cc(N5OCC[C@@H]5c5ccc(Cl)cc5F)ncn4)cc3NC(=O)C=C)CC2)CC1 [Example 211, N-(2-(4-(4-allylpiperazine-1-yl)piperidine-1-yl)-5-((6-((R)-3-(4-chloro-2-fluorophenyl)isoxazolidine-2-yl)pyrimidine-4-yl)amino)-4-methoxyphenyl) acrylamide] | A (GI50 < 50 nM)
19 | C=CC(=O)Nc1cc(Nc2cc(N3OCC[C@@H]3c3ccc(F)c(Cl)c3)ncn2)c(OC)cc1N1C[C@H]2CCN(C)[C@H]2C1 [compound 317, N-(5-((6-((R)-3-(3-chloro-4-fluorophenyl)isoxazolidine-2-yl)pyrimidine-4-yl)amino)-4-methoxy-2-((3aR, 6aR)-1-methylhexahydropyrrolo [3,4-b]pyrrole-5(1H)-yl)phenyl)acrylamide] | A (GI50 < 50 nM)
20 | C=CC(=O)Nc1cc(Nc2cc(N3OCC[C@@H]3c3ccc(Cl)c(F)c3)ncn2)c(OC)cc1N1CCC(N2CCN(C(C)=O)CC2)CC1 [compound 796, N-(2-(4-(4-acetylpiperazine-1-yl)piperidine-1-yl)-5-((6-((R)-3-(4-chloro-3-fluorophenyl)isoxazolidine-2-yl)pyrimidine-4-yl)amino)-4-methoxyphenyl) acrylamide] | A (GI50 < 50 nM)
21 | C=CC(=O)Nc1cc(Nc2cc(N3OCC[C@@H]3Cc3cccc(F)c3Cl)ncn2)c(OC)cc1N1CCN(C2CC2)CC1 [compound 1006, N-(5-((6-((S)-3-(2-chloro-3-fluorobenzyl)isoxazolidine-2-yl)pyrimidine-4-yl)amino)-2-(4-cyclopropylpiperazine-1-yl)-4-methoxyphenyl) acrylamide] | A (GI50 < 50 nM)
22 | C=CC(=O)Nc1cc(Nc2cc(N3OCC[C@@H]3c3c(F)ccc(F)c3Cl)ncn2)c(OC)cc1N1CCC(N2C[C@H]3C[C@@H]2CO3)CC1 [compound 692, N-(2-(4-((1R,4R)-2-oxa-5-azabicyclo[2.2.1]heptane-5-yl)piperidine-1-yl)-5-((6-((R)-3-(2-chloro-3,6-difluorophenyl)isoxazolidine-2-yl)pyrimidine-4-yl)amino)-4-methoxyphenyl) acrylamide] | A (GI50 < 50 nM)
23 | C=CC(=O)Nc1cc(Nc2cc(N3OCC[C@@]3(C)c3ccccc3)ncn2)c(OC)cc1N1CCC(N2C[C@H]3C[C@@H]2CO3)CC1 [Example 269, N-(2-(4-((1R,4R)-2-oxa-5-azabicyclo[2.2.1]heptane-5-yl)piperidine-1-yl)-4-methoxy-5-((6-((S)-3-methyl-3-phenylisoxazolidine-2-yl)pyrimidine-4-yl)amino)phenyl) acrylamide] | C (500 nM ≤ GI50 < 5000 nM)
